In paper PMC6934184, “Selective DNA-PKcs inhibition extends the therapeutic index of localized radiotherapy and chemotherapy” (The Journal of Clinical Investigation, 2019):

Biological target: T1, FRK (PTK5) (Homo sapiens, UniProt P42685)
T1 construct: purchased Thermo Fisher Scientific (Life Technologies) SelectScreen
Assay: SelectScreen Z'LYTE
Assay type: biochemical
In short: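 Compound tested in SelectScreen activity assays, Z'LYTE for CSF1R, CDK1/cyclin B and MAP2K6 and Adapta for CAMK1. ATP for CAMK1 was listed as 10, and Km app was used for CSF1R. Results are expressed in percent.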

T1 sequence (P42685 whole entry): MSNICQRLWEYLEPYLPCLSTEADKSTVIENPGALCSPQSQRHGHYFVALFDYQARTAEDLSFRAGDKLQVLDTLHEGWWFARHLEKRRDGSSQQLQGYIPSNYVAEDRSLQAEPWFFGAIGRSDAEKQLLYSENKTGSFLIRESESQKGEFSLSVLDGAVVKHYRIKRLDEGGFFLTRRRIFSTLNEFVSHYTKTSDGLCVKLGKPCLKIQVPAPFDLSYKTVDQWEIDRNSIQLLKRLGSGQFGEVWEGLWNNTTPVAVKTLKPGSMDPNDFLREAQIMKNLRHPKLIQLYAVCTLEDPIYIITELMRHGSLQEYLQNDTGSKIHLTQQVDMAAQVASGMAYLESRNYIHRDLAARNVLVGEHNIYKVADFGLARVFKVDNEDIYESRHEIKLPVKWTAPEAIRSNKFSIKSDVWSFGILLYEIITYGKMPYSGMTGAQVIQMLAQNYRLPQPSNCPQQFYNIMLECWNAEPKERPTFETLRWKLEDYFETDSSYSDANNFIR

With `CN(C(=O)CN1CCOCC1)c1ccc2sc3c(-c4cccc5c(=O)cc(N6CC7CCC(C6)O7)oc45)cccc3c2c1` [NU5455] the inhibition at 1 µM was 3.4%.
